For test [1], the target named is T1, arginase II (ARG II) (Homo sapiens, UniProt P78540).
T1 sequence (P78540 23-354): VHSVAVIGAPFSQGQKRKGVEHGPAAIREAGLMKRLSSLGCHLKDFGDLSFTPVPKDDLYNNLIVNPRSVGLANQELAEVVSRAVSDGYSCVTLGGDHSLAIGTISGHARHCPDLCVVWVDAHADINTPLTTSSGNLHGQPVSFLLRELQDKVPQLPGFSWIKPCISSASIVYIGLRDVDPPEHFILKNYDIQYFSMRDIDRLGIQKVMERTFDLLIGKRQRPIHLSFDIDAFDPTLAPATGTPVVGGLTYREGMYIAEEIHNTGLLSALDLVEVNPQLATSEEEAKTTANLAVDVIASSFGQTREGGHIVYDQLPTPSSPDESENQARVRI
Nature of the test: Inhibition of arginase II, spectrophotometric urea assay at 530 nm. It counts as biochemical. The essentials:
(§1)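 IC50 was derived by regression of OD530 normalized to uninhibited-enzyme controls against log concentration. Urea from 60-min, 37 °C turnover of L-arginine with manganese sulfate was detected after acid o-phthaldialdehyde/primaquine quench and 10 min colour development. Arginase I and II came from 100 ng/ml stocks in pH 7.4 phosphate with ovalbumin.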

In test [2] the target is T2, human arginase I (ARG I) (Homo sapiens, UniProt P05089).
T2 sequence (P05089 1-322): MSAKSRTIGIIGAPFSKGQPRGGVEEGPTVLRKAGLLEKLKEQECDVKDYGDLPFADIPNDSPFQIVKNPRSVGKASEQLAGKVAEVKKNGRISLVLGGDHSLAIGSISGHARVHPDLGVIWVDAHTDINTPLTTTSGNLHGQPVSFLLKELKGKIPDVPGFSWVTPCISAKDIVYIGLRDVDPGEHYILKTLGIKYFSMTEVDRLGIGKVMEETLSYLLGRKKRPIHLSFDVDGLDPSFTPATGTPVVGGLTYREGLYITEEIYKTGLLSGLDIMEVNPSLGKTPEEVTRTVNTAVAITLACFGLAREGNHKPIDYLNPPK
Nature of the test: Inhibition of arginase I, spectrophotometric urea assay at 530 nm. It counts as biochemical. Particulars: read-out: Potency (ARG I). The essentials:
as §1

Setting [3] is: Formula II compounds, Table 2-A, read-out: Potency (ARG).
Setting [4] is: Formula II compounds, Table 2-A.
[5] abbreviates: Formula I compounds, Table 2, read-out: Potency (ARG II).

Structures can show the parent of a compound that is named as a salt. Where two headings read alike, the source gives them in different places.

For `NC(CCCCB(O)O)(C(=O)O)C1CCN(C(=O)Nc2ccc(Cl)cc2)C1` [36-A, 2-amino-6-borono-2-((S)-1-(4-chlorophenylcarbamoyl)pyrrolidin-3-yl)hexanoic acid hydrochloride], the IC50 fell in the range of 2000 to 5000 nM in test [1] (setting [3]) and 251 to 1000 nM in test [2] (setting [4]).

As for `CC(C)CC(CO)NCC(N)(CCCCB(O)O)C(=O)O` [compound 88, 2-amino-6-borono-2-(((S)-1-hydroxy-4-methylpentan-2-ylamino)methyl)hexanoic acid dihydrochloride], the IC50 in test [1] (setting [5]) was 1000 to 2000 nM; in test [2] (Formula I compounds, Table 2), 2000 to 5000 nM.

`NC(CCCCB(O)O)(C(=O)O)C1CCN(c2cc(C(F)(F)F)c3ccccc3n2)CC1` (stereo not shown) [6-A, 2-amino-6-borono-2-(1-(4-(trifluoromethyl)quinolin-2-yl)piperidin-4-yl)hexanoic acid]: the IC50 in test [1] (setting [3]) fell in the range of 1000 to 2000 nM; in test [2] (setting [4]), 251 to 1000 nM.

On to `NC(CCCCB(O)O)(CCNCCCc1ccc(F)c(F)c1)C(=O)O` (stereo not shown) [compound 63, 2-amino-6-borono-2-(2-(3-(3,4-difluorophenyl)propylamino)ethyl)hexanoic acid dihydrochloride], for which the IC50 lay within 0.1 to 250 nM in test [1] (setting [5]) and 0.1 to 250 nM in test [2] (Formula I compounds, Table 2).

Turning to `NC(CCCCB(O)O)(C(=O)O)[C@@H]1CC(=O)N(c2ccc(Cl)cc2)C1` (stereo partly shown) [14-A, 2-amino-6-borono-2-[1-(4-chlorophenyl)-5-oxo-pyrrolidin-3-yl]-hexanoic acid hydrochloride], the IC50 in test [1] (setting [3]) and in test [2] (setting [4]) was 2000 to 5000 nM each time.

`NC(CCCCB(O)O)(C(=O)O)C1CCC(c2ccc(Cl)cc2)CC1` (stereo not shown) [Example 86-A, 2-amino-6-borono-2-(4-(4-chlorophenyl)cyclohexyl)hexanoic acid hydrochloride]: the IC50 in test [1] (setting [3]) and in test [2] (setting [4]) was over 5000 nM throughout.

For the compound `N[C@](CCCCB(O)O)(C[C@H]1CCCN1)C(=O)O` (stereo in doubt) [compound 115, (R)-2-amino-6-borono-2-((R)-pyrrolidin-2-ylmethyl)hexanoic acid], the IC50 fell in the range of 0.1 to 250 nM in test [1] (setting [5]) and 0.1 to 250 nM in test [2] (Formula I compounds, Table 2).

On to `NC(CCCCB(O)O)(CNCc1ccccc1)C(=O)O` (stereo not shown) [compound 84, 2-amino-2-((benzylamino)methyl)-6-boronohexanoic acid], for which the IC50 in test [1] (setting [5]) was over 5000 nM; in test [2] (Formula I compounds, Table 2), 2000 to 5000 nM.

`NC(CCCCB(O)O)(C(=O)O)C1CCN(Cc2ccc(Cl)cc2Cl)CC1` (stereo not shown) [Example 97-A, 2-amino-6-borono-2-(1-(2,4-dichlorobenzyl)piperidin-4-yl)hexanoic acid dihydrochloride]: the IC50 in test [1] (setting [3]) and in test [2] (setting [4]) was 251 to 1000 nM throughout.

With `NC(CCCCB(O)O)(CCOc1cccc(C(F)(F)F)c1)C(=O)O` (stereo not shown) [compound 95, 2-Amino-6-borono-2-[2-(3-trifluoromethylphenoxy)-ethyl]-hexanoic acid hydrochloride], the IC50 in test [1] (setting [5]) was in the range of 2000 to 5000 nM; in test [2] (Formula I compounds, Table 2) it was 2000 to 5000 nM.

Consider `N[C@](CCCCB(O)O)(CCN1CCC[C@H]1CO)C(=O)O` [compound 10, (R)-2-amino-6-borono-2-(2-((S)-2-(hydroxymethyl)pyrrolidin-1-yl)ethyl)hexanoic acid], for which the IC50 in test [1] (setting [5]) was 251 to 1000 nM; in test [2] (Formula I compounds, Table 2), 0.1 to 250 nM.

Turning to `NC(CCCCB(O)O)(CCCNCCc1ccc(Cl)cc1Cl)C(=O)O` (stereo not shown) [compound 140, 2-amino-6-borono-2-(3-(2,4-dichlorophenethylamino)propyl)hexanoic acid dihydrochloride], the IC50 lay in the range of 0.1 to 250 nM in test [1] (setting [5]) and 0.1 to 250 nM in test [2] (Formula I compounds, Table 2).

With `NC(CCCCB(O)O)(C(=O)O)C1CCN(c2nccc(C(F)(F)F)n2)CC1` (stereo not shown) [2-A, 2-amino-6-borono-2-[(4-Trifluoromethyl-pyrimidin-2-yl)-piperidin-4-yl)-hexanoic acid hydrochloride], the IC50 was 2000 to 5000 nM in test [1] (setting [3]) and 1000 to 2000 nM in test [2] (setting [4]).

Turning to `CN1CCN(CC(N)(CCCCB(O)O)C(=O)O)CC1` (stereo not shown) [compound 80, 2-amino-6-borono-2-((4-methylpiperazin-1-yl)methyl) hexanoic acid trihydrochloride], the IC50 is over 5000 nM in test [1] (setting [5]) and 2000 to 5000 nM in test [2] (Formula I compounds, Table 2).

Values taken from patent US9994594B2, “Inhibitors of arginase and their therapeutic applications” (MARS, INCORPORATED, priority 2010, dated 2018).
